Assay results from US20080194585A1, “Fungicidal Pyrazine Derivatives” (priority 2005, published 2008).
Marks after values point to notes of the source that are not given here.

Key:
Sclerotinia sclerotiorum = experiment: Test C: cucumber white mold, preventive spray on cucumber seedlings
Pythium aphanidermatum = experiment: Test A: bluegrass pythium blight, preventive spray on bluegrass seedlings
Phytophthora infestans = experiment: whole plant or invertebrate; format: in vivo
Botrytis cinerea = experiment: Test E: tomato botrytis, preventive spray on tomato seedlings
Rhizoctonia oryzae = experiment: Test G: turf brown patch, preventive spray on creeping bent grass seedlings
Description: (the causal agent of turf brown patch) and incubated in a saturated atmosphere at 27° C. for 24 h, and then moved to a growth chamber at 27° C. for 5 days, after which disease ratings were made.

Septoria nodorum = experiment: Test H: wheat glum blotch, preventive spray on wheat seedlings
Description: (the causal agent of wheat glum blotch) and incubated in a saturated atmosphere at 20° C. for 48 h, and then moved to a growth chamber at 22° C. for 5 days, after which disease ratings were made.

[1] = test system: Puccinia recondita f. sp. tritici; experiment: Test K: wheat leaf rust, preventive spray on wheat seedlings
fusarium graminearium = experiment: Test I: wheat head scab, preventive spray on wheat seedlings
Description: (the causal agent of wheat head scab) and incubated in a saturated atmosphere at 20° C. for 72 h, and then moved to a growth chamber at 22° C. for 5 days, after which disease ratings were made.

[2] = test system: Erysiphe graminis f. sp. tritici; experiment: Test L: wheat powdery mildew, preventive spray on wheat seedlings
Plasmopara viticola = experiment: Test D: grape downy mildew, spray after inoculation of grape seedlings; format: in vivo
From the text: Upon removal, disease ratings were made. […] A dash (-) indicates no test results.

[3] = test system: Colletotrichum orbiculare; experiment: Test B: cucumber Colletotrichum anthracnose, preventive spray on cucumber seedlings

Structure (SMILES) | Test C disease control rating (Sclerotinia sclerotiorum; 200 ppm) [%] | Test A disease control rating (Pythium aphanidermatum; 200 ppm) [%] | Test F disease control rating (Phytophthora infestans; 200 ppm) [%] | Test E disease control rating (Botrytis cinerea; 200 ppm) [%] | Test G disease control rating (Rhizoctonia oryzae; 200 ppm) [%] | Test H disease control rating (Septoria nodorum; 200 ppm) [%] | Test K disease control rating ([1]; 200 ppm) [%] | Test I disease control rating (fusarium graminearium; 200 ppm) [%] | Test L disease control rating ([2]; 200 ppm) [%] | Test D disease control rating (Plasmopara viticola; 200 ppm) [%] | Test B disease control rating ([3]; 200 ppm) [%] | also measured
CCC(C)Cn1c(-c2c(F)cccc2F)c(Cl)nc(C#N)c1=O (stereo not shown) [compound 21] | 0 | 0 | 0 | 99 | 31 | 0 | 96 | 0 | 96 | 15 | 0 | 
CC(C)Cn1c(-c2c(F)ccc(F)c2F)c(Cl)nc(-n2cncn2)c1=O [compound 55] | 85 | 0 | 0 | 100 | 96 | 95 | 99 | 78 | 0 | 0 | 0 | 
CC(C)Cn1c(-c2ccc(Cl)cc2F)c(Cl)nc(-n2cncn2)c1=O [compound 44] |  |  |  |  |  |  |  |  |  |  |  | Test C disease control rating (Sclerotinia sclerotiorum; 40 ppm (*)): 0* %; Test A disease control rating (Pythium aphanidermatum; 40 ppm (*)): 0* %; Test F disease control rating (Phytophthora infestans; 40 ppm (*)): 0* %; Test E disease control rating (Botrytis cinerea; 40 ppm (*)): 95* %; Test G disease control rating (Rhizoctonia oryzae; 40 ppm (*)): 16* %; Test H disease control rating (Septoria nodorum; 40 ppm (*)): 0* %; Test K disease control rating ([1]; 40 ppm (*)): 0* %; Test I disease control rating (fusarium graminearium; 40 ppm (*)): 0* %; Test L disease control rating ([2]; 40 ppm (*)): 0* %; Test D disease control rating (Plasmopara viticola; 40 ppm (*)): 0* %; Test B disease control rating ([3]; 40 ppm (*)): 0* %
O=c1c(N2CCC=N2)nc(Cl)c(-c2c(F)cccc2F)n1CC1CC1 [compound 16] | 0 | 0 | 84 | 99 | 0 | 0 | 68 | 0 | 26 | 8 | 0 | 
CC(C)=NNc1nc(Cl)c(-c2c(F)cccc2F)n(CC(C)C)c1=O [compound 48] | 0 | 0 | 0 | 83 | 16 | 0 | 80 | 0 | 0 | 0 | 0 | 
CC(C)Cn1c(-c2ccc(C(F)(F)F)cc2F)c(Cl)nc(-n2cccn2)c1=O [compound 46] | 0 | 0 | 0 | 0 | 0 | 0 | 0 | 78 | 0 | 0 | 0 | 
COc1nc(-n2cccn2)c(=O)n(C2CCCCC2)c1-c1c(F)cccc1F [compound 49] | 0 | 0 | 0 | 47 | 16 | 0 | 0 | 0 | 21 | 8 | 0 | 
CC(C)Cn1c(-c2cccc(Cl)c2Cl)c(Cl)nc(-n2cccn2)c1=O [compound 41] | 98 | 0 | 0 | 100 | 47 | 100 | 83 | 0 | 0 | 8 | 68 | 
CC(C)Cn1c(-c2cc(F)ccc2F)c(Cl)nc(-n2cncn2)c1=O [compound 54] | 92 | 0 | 0 | 100 | 84 | 90 | 98 | 0 | 0 | 0 | 0 | 
CC(C)Cn1c(-c2cc(Cl)cc(Cl)c2)c(Cl)nc(-n2cccn2)c1=O [compound 42] | 0 | 0 | 0 | 0 | 0 | 0 | 0 | 60 | 0 | 0 | 0 | 
CC(C)Cn1c(-c2c(F)cccc2Cl)c(Cl)nc(-n2cccn2)c1=O [compound 9] | 98 | 62 | 88 | 100 | 82 | 100 | 100 | 80 | 99 | 49 | 100 | 
CC(C)Cn1c(-c2cccc(Cl)c2Cl)c(Cl)nc(-n2cncn2)c1=O [compound 39] | 0 | 0 | 0 | 99 | 0 | 89 | 67 | 0 | 0 | 0 | 0 | 
CC(C)Cn1c(-c2c(F)cccc2F)c(Cl)nc(C#N)c1=O [Compound 5, 6-Chloro-5-(2,6-difluorophenyl)-3,4-dihydro-4-(2-methylpropyl)-3-oxopyrazinecarbonitrile] |  |  |  |  |  |  |  |  |  |  |  | pest or weed control at 200 ppm (Sclerotinia sclerotiorum; Sclerotinia sclerotiorum, in Cucumis sativus, 168 h, read-out: Test C disease control rating, 200 ppm): 0%; pest or weed control at 200 ppm (Pythium aphanidermatum; Pythium aphanidermatum, 120 h, read-out: Test A disease control rating): 71%; pest or weed control at 200 ppm (Botrytis cinerea; Botrytis cinerea, in Solanum lycopersicum, topical, 72 h, read-out: Test E disease control rating): 71%; pest or weed control at 200 ppm (Rhizoctonia oryzae; Waitea circinata, in Agrostis stolonifera, topical, 144 h, read-out: Test G disease control rating, 200 ppm): 26%; pest or weed control at 200 ppm (Septoria nodorum; Parastagonospora nodorum, in Triticum aestivum, topical, 168 h, read-out: Test H disease control rating, 200 ppm): 0%; pest or weed control at 200 ppm ([1]; Puccinia recondita, in Triticum aestivum, 192 h, read-out: Test K disease control rating): 99%; pest or weed control at 200 ppm (fusarium graminearium; Fusarium, in Triticum aestivum, topical, 192 h, read-out: Test I disease control rating, 200 ppm): 20%; pest or weed control at 200 ppm ([2]; Blumeria graminis, in Triticum aestivum, 168 h, read-out: Test L disease control rating, 200 ppm): 97%; pest or weed control at 200 ppm (Plasmopara viticola; Plasmopara viticola, 168 h, 200 ppm, read-out: Test D disease control rating): 24%; pest or weed control at 200 ppm ([3]; Colletotrichum orbiculare, in Cucumis sativus, 144 h, read-out: Test B disease control rating, 200 ppm): 33%
